Legend:
Assay type in all cases: ADME
[1] = target: T1, Solute carrier family 22 member 6 (Homo sapiens, UniProt Q4U2R8); test: Substrates of transporters of clinical importance in the absorption and disposition of drugs, OAT1
T1 sequence (Q4U2R8 whole entry): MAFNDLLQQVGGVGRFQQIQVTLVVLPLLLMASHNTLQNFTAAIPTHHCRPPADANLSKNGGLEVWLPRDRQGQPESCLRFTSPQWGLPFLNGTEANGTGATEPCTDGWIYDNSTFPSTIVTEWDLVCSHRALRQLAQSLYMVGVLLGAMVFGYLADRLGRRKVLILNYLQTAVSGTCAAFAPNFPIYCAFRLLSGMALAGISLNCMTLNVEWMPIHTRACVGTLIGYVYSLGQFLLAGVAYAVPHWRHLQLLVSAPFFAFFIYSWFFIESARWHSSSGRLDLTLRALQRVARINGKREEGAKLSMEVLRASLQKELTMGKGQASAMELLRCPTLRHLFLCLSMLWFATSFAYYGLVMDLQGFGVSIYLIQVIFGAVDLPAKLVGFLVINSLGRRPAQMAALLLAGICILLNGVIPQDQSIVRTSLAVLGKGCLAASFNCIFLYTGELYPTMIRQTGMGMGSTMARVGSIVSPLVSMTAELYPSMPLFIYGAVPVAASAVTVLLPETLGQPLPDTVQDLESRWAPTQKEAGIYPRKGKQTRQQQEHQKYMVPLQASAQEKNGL

[2] = target: T2, ATP-binding cassette sub-family C member 4 (Homo sapiens, UniProt O15439); test: Substrates of transporters of clinical importance in the absorption and disposition of drugs, MRP4
T2 sequence (O15439 whole entry): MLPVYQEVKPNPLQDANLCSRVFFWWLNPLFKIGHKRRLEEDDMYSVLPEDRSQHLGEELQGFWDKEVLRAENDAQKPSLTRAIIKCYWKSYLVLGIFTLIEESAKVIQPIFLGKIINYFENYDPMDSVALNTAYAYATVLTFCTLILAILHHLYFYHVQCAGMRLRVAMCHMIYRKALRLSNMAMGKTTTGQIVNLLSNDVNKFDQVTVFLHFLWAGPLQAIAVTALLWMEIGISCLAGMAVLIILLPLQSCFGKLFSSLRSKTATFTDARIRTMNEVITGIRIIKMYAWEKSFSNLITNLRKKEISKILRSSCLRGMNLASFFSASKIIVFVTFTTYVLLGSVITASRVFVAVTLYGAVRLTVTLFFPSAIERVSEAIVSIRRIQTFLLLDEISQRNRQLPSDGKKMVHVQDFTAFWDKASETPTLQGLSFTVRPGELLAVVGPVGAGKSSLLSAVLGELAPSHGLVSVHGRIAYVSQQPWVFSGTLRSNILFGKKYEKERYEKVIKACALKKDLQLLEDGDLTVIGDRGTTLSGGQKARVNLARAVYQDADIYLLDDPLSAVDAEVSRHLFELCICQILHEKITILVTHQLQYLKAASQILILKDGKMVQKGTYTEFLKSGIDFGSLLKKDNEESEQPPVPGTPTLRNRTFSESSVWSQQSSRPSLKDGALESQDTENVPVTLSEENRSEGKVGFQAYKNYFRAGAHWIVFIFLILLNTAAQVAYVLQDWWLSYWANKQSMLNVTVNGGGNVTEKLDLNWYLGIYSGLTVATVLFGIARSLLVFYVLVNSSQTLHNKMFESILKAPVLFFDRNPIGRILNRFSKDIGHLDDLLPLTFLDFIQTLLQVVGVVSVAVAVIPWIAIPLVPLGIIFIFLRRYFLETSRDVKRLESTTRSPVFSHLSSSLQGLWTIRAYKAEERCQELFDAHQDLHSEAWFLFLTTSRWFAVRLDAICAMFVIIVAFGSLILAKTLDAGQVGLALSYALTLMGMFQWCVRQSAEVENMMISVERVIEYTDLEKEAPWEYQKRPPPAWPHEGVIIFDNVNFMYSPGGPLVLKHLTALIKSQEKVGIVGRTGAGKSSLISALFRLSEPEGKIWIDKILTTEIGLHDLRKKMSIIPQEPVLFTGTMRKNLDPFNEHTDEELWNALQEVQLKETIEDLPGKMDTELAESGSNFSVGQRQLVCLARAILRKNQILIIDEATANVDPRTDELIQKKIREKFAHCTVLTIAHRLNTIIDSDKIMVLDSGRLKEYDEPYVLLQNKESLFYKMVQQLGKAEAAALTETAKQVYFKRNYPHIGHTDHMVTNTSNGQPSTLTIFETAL

[3] = target: T3, Organic anion transporter 3 (Homo sapiens, UniProt Q8TCC7); test: Substrates of transporters of clinical importance in the absorption and disposition of drugs, OAT3
T3 sequence (Q8TCC7 whole entry): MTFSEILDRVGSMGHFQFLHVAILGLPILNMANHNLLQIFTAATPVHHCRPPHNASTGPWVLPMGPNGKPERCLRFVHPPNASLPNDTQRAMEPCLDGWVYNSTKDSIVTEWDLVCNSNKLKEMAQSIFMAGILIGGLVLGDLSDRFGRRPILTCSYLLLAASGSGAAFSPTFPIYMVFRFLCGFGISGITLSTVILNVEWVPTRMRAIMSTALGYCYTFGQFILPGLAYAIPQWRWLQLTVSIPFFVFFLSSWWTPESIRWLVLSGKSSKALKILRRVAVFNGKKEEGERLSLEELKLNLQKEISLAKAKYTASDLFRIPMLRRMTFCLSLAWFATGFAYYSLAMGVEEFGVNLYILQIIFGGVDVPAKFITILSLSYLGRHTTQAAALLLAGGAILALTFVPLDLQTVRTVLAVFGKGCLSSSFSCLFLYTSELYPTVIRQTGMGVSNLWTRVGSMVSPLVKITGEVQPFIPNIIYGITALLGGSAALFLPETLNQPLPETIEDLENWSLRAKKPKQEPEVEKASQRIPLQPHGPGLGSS

[4] = target: T4, Solute carrier organic anion transporter family member 2B1 (Homo sapiens, UniProt O94956); test: Substrates of transporters of clinical importance in the absorption and disposition of drugs, OATP2B1
T4 sequence (O94956 whole entry): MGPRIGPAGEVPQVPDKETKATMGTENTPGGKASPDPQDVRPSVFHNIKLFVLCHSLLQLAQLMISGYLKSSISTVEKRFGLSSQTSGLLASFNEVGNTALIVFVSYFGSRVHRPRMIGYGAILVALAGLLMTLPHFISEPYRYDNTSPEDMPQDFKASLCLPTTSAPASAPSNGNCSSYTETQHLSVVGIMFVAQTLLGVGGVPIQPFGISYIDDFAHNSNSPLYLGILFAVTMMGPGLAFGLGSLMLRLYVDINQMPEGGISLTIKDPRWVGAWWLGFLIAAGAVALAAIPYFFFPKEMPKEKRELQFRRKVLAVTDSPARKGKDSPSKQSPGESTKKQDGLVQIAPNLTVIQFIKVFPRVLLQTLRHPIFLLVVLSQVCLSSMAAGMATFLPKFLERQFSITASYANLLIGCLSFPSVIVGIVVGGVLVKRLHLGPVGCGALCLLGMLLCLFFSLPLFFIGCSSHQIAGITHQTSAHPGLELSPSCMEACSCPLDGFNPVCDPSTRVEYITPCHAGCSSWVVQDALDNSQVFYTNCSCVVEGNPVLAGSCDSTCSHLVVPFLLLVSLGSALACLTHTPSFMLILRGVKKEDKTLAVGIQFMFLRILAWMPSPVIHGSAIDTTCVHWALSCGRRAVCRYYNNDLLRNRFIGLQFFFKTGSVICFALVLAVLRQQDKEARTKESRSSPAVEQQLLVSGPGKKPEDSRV

Activity [1]	Activity [2]	Activity [3]	SMILES	other results
transporter substrate			Cc1cn([C@H]2C[C@H](N=[N+]=[N-])[C@@H](CO)O2)c(=O)[nH]c1=O [ZIDOVUDINE]	
transporter substrate			Nc1ccn([C@H]2CC[C@@H](CO)O2)c(=O)n1 [ZALCITABINE]	
		transporter substrate	CO/N=C(\C(=O)N[C@@H]1C(=O)N2C(C(=O)O)=CCS[C@H]12)c1csc(N)n1 [CEFTIZOXIME]	
	transporter substrate	transporter substrate	NS(=O)(=O)c1cc(C(=O)O)c(NCc2ccco2)cc1Cl [FUROSEMIDE]	
		transporter substrate	N[C@@H](C(=O)N[C@@H]1C(=O)N2C(C(=O)O)=C(Cl)CS[C@H]12)c1ccccc1 [CEFACLOR ANHYDROUS]	
		transporter substrate	CCCCNc1cc(C(=O)O)cc(S(N)(=O)=O)c1Oc1ccccc1 [BUMETANIDE]	
transporter substrate	transporter substrate		C[C@H](Cn1cnc2c(N)ncnc21)OCP(=O)(O)O [TENOFOVIR ANHYDROUS]	
			COc1ccc(Cl)cc1C(=O)NCCc1ccc(S(=O)(=O)NC(=O)NC2CCCCC2)cc1 [GLYBURIDE]	Activity [4]: transporter substrate

SMILES	Activity [1]	Activity [2]	Activity [3]	other results
Nc1ccn(C[C@@H](CO)OCP(=O)(O)O)c(=O)n1.O.O [CIDOFOVIR]	transporter substrate			
Nc1ncnc2c1ncn2CCOCP(=O)(O)O [ADEFOVIR]	transporter substrate	transporter substrate		
